Columns and labels:
[1] = test system: Staphylococcus aureus strain IP 8; assay: Inhibition of bacterial growth (MIC), Sa; type: cell-based; details: 16 to 18 hours, 37° C.
Experimental: (§1) Each compound was assayed against a panel of a strain of Bacillus subtilis, of strains of antibiotic-resistant and sensitive Enterococcus and Staphylococcus species, and of a strain of the Gram-negative bacterium Escherichia coli. Compounds were dissolved in DMSO at 100× the desired highest concentration and added to one well of a 96-well microassay plate. Two-fold serial drug dilutions were made across the plate in DMSO to yield 11 concentrations (usually 80-0.078 μg/mL) plus an untreated control. Drugs were then transferred to fresh plates using 1.5 μL per well. Log phase cultures were diluted to yield a concentration of 1×10^5 colony forming units/mL in either LB or BHI medium and transferred to the plates containing drug for a final volume of 150 μL. Each well, including the DMSO controls, contained a final concentration of 1% DMSO. Plates were incubated with shaking at 37° C. for 16 to 18 hours. Cell growth was determined by measuring optical density (570 nm, 1 cm path length) in a microplate reader. MIC (minimum inhibitory concentration) is equivalent to the lowest concentration at which growth is not observed. The bacterial strains and MIC determinations have been well characterized and are described elsewhere (Tarantino et al., Antimicrob. Agents Chemother., 43: 1982-1987 (1999); Daly et al., Antimicrob. Agents Chemother., 44: 2217-2221 (2000)).

E. coli pol IIIE = molecular target: T1, E. coli pol IIIE (Escherichia coli, UniProt P10443); assay: DNA polymerase assay, E. coli pol IIIE; type: biochemical; details: 80 μg/mL (190-260 μM) final concentration; all four dNTPs
T1 construct: purchased Enzyco, Denver, Colo
T1 sequence (P10443 whole entry): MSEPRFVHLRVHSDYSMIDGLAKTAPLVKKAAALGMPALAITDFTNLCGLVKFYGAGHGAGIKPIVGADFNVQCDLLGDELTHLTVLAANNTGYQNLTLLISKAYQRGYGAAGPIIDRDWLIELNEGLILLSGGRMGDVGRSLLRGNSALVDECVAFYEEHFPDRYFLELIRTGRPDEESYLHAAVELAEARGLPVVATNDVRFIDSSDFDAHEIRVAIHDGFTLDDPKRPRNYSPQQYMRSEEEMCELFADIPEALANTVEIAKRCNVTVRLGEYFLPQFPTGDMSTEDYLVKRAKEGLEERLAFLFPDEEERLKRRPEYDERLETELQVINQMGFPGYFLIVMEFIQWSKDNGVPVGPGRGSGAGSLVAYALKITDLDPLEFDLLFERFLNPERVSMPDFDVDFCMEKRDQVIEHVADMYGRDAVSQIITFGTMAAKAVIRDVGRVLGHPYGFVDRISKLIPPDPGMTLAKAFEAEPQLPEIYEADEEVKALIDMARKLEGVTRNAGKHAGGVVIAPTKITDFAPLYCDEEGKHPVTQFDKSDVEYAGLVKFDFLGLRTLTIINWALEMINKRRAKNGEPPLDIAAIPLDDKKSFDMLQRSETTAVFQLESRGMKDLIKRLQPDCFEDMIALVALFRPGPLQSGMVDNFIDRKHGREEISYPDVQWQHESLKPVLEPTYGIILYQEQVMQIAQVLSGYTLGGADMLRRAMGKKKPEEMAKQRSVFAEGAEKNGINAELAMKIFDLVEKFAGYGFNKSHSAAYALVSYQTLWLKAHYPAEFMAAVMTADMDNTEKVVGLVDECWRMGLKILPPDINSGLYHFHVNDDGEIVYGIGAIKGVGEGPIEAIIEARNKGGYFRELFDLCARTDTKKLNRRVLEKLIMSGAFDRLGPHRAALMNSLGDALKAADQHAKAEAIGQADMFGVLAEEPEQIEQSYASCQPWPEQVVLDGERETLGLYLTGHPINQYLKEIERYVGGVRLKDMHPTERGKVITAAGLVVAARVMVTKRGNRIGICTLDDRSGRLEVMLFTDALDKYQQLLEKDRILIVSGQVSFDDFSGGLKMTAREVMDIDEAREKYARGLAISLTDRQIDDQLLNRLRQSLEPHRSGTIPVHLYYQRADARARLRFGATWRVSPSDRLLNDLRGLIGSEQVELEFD
Experimental: (§2) Recombinant, purified pol IIIC and pol IIIE from Bacillus subtilis were obtained using known methods (Hammond et al., Gene 98: 29-36 (1991), regarding pol IIIC; Barnes et al., J. Bacteriol. 184, 3834-3838 (2002), regarding pol IIIE). Recombinant, purified pol IIIE from Escherichia coli was obtained from a commercial source (Enzyco, Denver, Colo.). The enzyme assays were performed in 96-well plate format using the same assay mix for all three enzymes. Each 25 μL assay contained 30 mM Tris, pH 7.5, 10 mM magnesium acetate, 4 mM dithiothreitol, 20% glycerol, with 10 μM dATP, dCTP, dGTP and dTTP (3H-labelled at 1.44 Ci/mmole) and 0.4 mg/mL activated calf thymus DNA as substrates. Dilutions of compounds were added to the plate in 1% DMSO (1 μL/well). Assays were initiated by the addition of 0.025 to 0.06 units of enzyme (1 unit is the amount required to incorporate 250 pmoles of [^3H] dTMP in a standard assay), incubated for 10 min at 30° C. and terminated by the addition of 200 μL of cold 10% trichloroacetic acid, 10 mM sodium pyrophosphate. Precipitated labeled DNA was collected on glass fiber filter plates that had been pre-wet with ice cold 1 M HCl, 100 mM sodium pyrophosphate. The plates were washed with the HCl solution followed by ice cold 90% ethanol and then dried and counted in a liquid scintillation counter. The calculated IC50 is the concentration needed to inhibit 50% of the DNA polymerase activity in the presence of all four dNTP substrates. In addition, percent inhibition values are calculated as the percent reduction in the activity of a DMSO (diluent) control.

[2] = test system: vancomycin-resistant Enterococcus strain B42762; assay: Inhibition of bacterial growth (MIC), VRE; type: cell-based; details: 16 to 18 hours, 37° C.
Experimental: as §1

[3] = test system: E. faecium clinical isolate; assay: Inhibition of bacterial growth (MIC), Efcm; type: cell-based; details: 16 to 18 hours, 37° C.
Experimental: as §1

B. subtilis pol IIIC = molecular target: T2, B. subtilis pol IIIC (Bacillus subtilis, UniProt P13267); assay: DNA polymerase assay, B. subtilis pol IIIC; type: biochemical; details: 80 μg/mL (190-260 μM) final concentration; all four dNTPs
T2 construct: made in house
T2 sequence (P13267 whole entry): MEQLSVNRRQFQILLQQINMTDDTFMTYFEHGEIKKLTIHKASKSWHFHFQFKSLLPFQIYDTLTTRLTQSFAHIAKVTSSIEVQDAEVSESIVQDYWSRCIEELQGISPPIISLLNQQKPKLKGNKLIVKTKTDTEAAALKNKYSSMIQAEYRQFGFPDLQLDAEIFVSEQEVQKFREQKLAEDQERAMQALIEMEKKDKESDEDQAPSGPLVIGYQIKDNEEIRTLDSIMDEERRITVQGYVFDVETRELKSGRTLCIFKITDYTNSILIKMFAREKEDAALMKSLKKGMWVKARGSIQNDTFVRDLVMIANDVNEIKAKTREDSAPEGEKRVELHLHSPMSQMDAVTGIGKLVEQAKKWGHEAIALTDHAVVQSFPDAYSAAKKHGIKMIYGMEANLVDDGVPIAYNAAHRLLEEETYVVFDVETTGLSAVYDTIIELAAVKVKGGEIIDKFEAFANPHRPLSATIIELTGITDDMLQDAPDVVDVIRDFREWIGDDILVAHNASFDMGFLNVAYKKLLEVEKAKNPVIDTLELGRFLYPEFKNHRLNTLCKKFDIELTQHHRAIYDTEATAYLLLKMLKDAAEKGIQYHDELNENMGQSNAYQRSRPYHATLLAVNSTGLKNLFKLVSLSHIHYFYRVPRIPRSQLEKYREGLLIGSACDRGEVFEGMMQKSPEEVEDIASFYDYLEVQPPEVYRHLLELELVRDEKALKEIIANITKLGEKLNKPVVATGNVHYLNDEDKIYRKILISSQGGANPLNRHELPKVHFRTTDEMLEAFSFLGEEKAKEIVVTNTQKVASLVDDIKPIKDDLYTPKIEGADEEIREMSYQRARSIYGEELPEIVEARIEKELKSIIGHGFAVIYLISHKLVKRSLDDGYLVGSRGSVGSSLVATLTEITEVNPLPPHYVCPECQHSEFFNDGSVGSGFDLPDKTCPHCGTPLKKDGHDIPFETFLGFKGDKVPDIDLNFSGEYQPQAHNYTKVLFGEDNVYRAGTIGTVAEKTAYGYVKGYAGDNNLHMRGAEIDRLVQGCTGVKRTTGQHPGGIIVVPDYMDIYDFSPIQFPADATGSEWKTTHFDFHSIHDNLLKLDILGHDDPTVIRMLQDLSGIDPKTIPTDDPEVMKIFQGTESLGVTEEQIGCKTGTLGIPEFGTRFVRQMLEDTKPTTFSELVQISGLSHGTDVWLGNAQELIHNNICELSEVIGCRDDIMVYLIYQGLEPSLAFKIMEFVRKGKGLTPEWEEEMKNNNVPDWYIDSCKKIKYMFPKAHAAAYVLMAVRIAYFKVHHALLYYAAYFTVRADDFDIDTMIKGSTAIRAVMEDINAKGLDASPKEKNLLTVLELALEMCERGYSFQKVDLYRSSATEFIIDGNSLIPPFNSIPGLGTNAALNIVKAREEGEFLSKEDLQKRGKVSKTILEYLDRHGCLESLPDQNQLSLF
Experimental: as §2, with “Each 25 μL assay contained 30 mM Tris, pH 7.5, 10 mM magnesium acetate, 4 mM dithiothreitol, 20% glycerol, with 10 μM dATP, dCTP, dGTP and dTTP (3H-labelled at 1.44 Ci/mmole) and 0.4 mg/mL activated calf thymus DNA as substrates.” left out, “The calculated IC50 is the concentration needed to inhibit 50% of the DNA polymerase activity in the presence of all four dNTP substrates.” left out

[4] = test system: Bacillus subtilis strain BD54; assay: Inhibition of bacterial growth (MIC), Bs; type: cell-based; details: 16 to 18 hours, 37° C.
Experimental: as §1

[5] = test system: methicillin-resistant S. aureus strain 1094; assay: Inhibition of bacterial growth (MIC), MRSA; type: cell-based, Staphylococcus aureus; details: 16 to 18 hours, 37° C.
Experimental: as §1

[6] = test system: Escherichia coli strain J53; assay: Inhibition of bacterial growth (MIC), Ec; type: cell-based; details: 16 to 18 hours, 37° C.
Experimental: as §1

S. aureus Smith strain = assay: Inhibition of bacterial growth (MIC), Sm; type: cell-based, Staphylococcus aureus; details: 16 to 18 hours, 37° C.
Experimental: as §1

B. subtilis pol IIIE = molecular target: T3, B. subtilis pol IIIE (Bacillus subtilis, UniProt O34623); assay: DNA polymerase assay, B. subtilis pol IIIE; type: biochemical; details: 80 μg/mL (190-260 μM) final concentration; all four dNTPs
T3 construct: made in house
T3 sequence (O34623 whole entry): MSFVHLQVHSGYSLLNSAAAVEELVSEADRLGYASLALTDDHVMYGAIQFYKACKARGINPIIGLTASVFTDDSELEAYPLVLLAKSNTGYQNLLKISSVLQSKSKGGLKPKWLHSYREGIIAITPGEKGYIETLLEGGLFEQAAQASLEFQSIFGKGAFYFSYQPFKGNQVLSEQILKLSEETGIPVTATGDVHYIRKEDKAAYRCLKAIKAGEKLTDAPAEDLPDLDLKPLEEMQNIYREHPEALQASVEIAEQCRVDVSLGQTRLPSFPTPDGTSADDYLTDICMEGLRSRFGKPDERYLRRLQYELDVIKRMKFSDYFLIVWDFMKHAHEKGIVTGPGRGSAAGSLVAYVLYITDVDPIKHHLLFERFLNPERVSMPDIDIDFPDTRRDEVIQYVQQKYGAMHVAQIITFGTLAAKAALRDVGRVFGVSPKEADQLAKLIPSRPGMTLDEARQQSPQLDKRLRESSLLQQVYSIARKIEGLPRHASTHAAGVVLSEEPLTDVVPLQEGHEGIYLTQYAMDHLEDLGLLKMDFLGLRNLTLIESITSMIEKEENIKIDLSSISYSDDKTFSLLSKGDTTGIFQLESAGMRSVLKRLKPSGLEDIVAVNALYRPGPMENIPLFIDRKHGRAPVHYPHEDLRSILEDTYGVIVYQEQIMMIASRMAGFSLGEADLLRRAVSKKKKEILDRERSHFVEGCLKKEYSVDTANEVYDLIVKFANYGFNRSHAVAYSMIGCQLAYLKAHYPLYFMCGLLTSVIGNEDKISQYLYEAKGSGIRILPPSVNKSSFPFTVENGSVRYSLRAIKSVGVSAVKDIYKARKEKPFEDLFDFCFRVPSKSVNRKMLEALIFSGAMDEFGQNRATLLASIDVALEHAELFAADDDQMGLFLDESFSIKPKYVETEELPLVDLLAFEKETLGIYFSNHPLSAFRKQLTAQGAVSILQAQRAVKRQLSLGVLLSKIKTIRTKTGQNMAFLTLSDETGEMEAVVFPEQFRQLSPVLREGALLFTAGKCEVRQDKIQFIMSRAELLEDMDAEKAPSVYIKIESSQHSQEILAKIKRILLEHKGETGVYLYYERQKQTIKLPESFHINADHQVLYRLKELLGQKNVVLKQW
Experimental: as §2

[7] = test system: Enterococcus faecalis strain 29212; assay: Inhibition of bacterial growth (MIC), Efcl; type: cell-based; details: 16 to 18 hours, 37° C.
Experimental: as §1

SMILES | Minimum Inhibitory Concentration for Bacterial Growth, Sa [1] | Percent Enzymatic Inhibition E. coli pol IIIE (E. coli pol IIIE) | Minimum Inhibitory Concentration for Bacterial Growth, VRE [2] | Minimum Inhibitory Concentration for Bacterial Growth, Efcm [3] | Percent Enzymatic Inhibition B. subtilis pol IIIC (B. subtilis pol IIIC) | Minimum Inhibitory Concentration for Bacterial Growth, Bs [4] | Minimum Inhibitory Concentration for Bacterial Growth, MRSA [5] | Minimum Inhibitory Concentration for Bacterial Growth, Ec [6] | Minimum Inhibitory Concentration for Bacterial Growth, Sm (S. aureus Smith strain) | Percent Enzymatic Inhibition B. subtilis pol IIIE (B. subtilis pol IIIE) | Minimum Inhibitory Concentration for Bacterial Growth, Efcl [7]
COc1cccc(-c2cc(C(=O)NN=Cc3ccc(O)cc3)[nH]n2)c1 [Compound 14] | 80 µg/mL | Inactive | 80 µg/mL | >80 µg/mL | 0.5% | >80 µg/mL | 80 µg/mL | >80 µg/mL | 80 µg/mL | 18.1% | >80 µg/mL
CCN1C(=O)C(=NNC(=O)c2cc(-c3ccccc3)n[nH]2)c2ccccc21 [Compound 20] | – | Inactive | – | – | 0.2% | – | – | – | – | 0.5% | –
CCCCc1cc(C=NNC(=O)c2cc(-c3ccccc3)n[nH]2)cc(CCCC)c1O [Compound 12] | >80 µg/mL | 7.2% | >80 µg/mL | >80 µg/mL | Inactive | >80 µg/mL | >80 µg/mL | >80 µg/mL | >80 µg/mL | 7.6% | >80 µg/mL
O=C(NN=Cc1ccccc1O)c1cc(-c2ccccc2)n[nH]1 [Compound 9] | >80 µg/mL | – | >80 µg/mL | >80 µg/mL | – | >80 µg/mL | >80 µg/mL | >80 µg/mL | >80 µg/mL | – | >80 µg/mL
COc1cccc(-c2cc(C(=O)NN=Cc3cccc(O)c3)[nH]n2)c1 [Compound 10] | >80 µg/mL | Inactive | >80 µg/mL | >80 µg/mL | Inactive | >80 µg/mL | >80 µg/mL | >80 µg/mL | >80 µg/mL | 9.6% | >80 µg/mL
COc1ccc(-c2cc(C(=O)NN=Cc3ccccc3)[nH]n2)cc1 [Compound 13] | >80 µg/mL | 3.4% | >80 µg/mL | >80 µg/mL | 2.9% | >80 µg/mL | >80 µg/mL | >80 µg/mL | >80 µg/mL | Inactive | >80 µg/mL
Cc1ccc(C=NNC(=O)c2cc(-c3ccccc3)n[nH]2)cc1 [Compound 11] | >80 µg/mL | Inactive | >80 µg/mL | >80 µg/mL | 1.3% | >80 µg/mL | >80 µg/mL | >80 µg/mL | >80 µg/mL | 16.7% | >80 µg/mL
O=C(NN=Cc1cc(Br)ccc1O)c1cc(-c2ccccc2)n[nH]1 [Compound 6] | 10 µg/mL | 9.0% | 8 µg/mL | 10 µg/mL | 11.3% | >80 µg/mL | 40 µg/mL | >80 µg/mL | >80 µg/mL | 7.7% | 8 µg/mL
CCN1C(=O)C(=NNC(=O)c2cc(-c3cccc(-c4ccccc4)c3)n[nH]2)c2ccccc21 [Compound 21] | >80 µg/mL | – | >80 µg/mL | >80 µg/mL | – | >80 µg/mL | >80 µg/mL | >80 µg/mL | >80 µg/mL | – | >80 µg/mL
COc1cccc(C=NNC(=O)c2cc(-c3ccc(C)cc3)n[nH]2)c1O [Compound 8] | >80 µg/mL | – | >80 µg/mL | >80 µg/mL | 19.7% | >80 µg/mL | >80 µg/mL | >80 µg/mL | >80 µg/mL | – | >80 µg/mL

Reference: US20060258729A1, “Antibacterial pyrazole carboxylic acid hydrazides” (priority 2002, published 2006)
